Laboratory results published in patent US11203601B2, “Tricyclic compounds as glycogen synthase kinase 3 (GSK3) inhibitors and uses thereof” (The Broad Institute, Inc., priority 2017, dated 2021).
Converted amounts (≈) assume the structure as drawn. Read-outs that look alike come from different tables or passages of the source.

Experiments:
[1] = Plasma protein binding (RED), human; assay type: in vitro ADME; conditions: 5 hours at 37° C., read-out: Plasma Protein Binding (Human, % bound) (converted)
Experimental: (§1) Stability of compound in plasma was tested in duplicate by incubating compound at 5 μM for 5 hours at 37° C. Compound level at 5 hours was compared to level at 0 hours, and percent remaining was calculated. Binding to plasma proteins was tested in duplicate by incubating compound in plasma at 5 μM for 5 hours at 37° C. in the Rapid Equilibrium Dialysis (RED) Device. Compound level in plasma compartment was compared to compound level in buffer compartment to calculate percent bound. Order by selecting Plasma Stability and Plasma Protein Binding in Prometheus, checking boxes for desired species.
(§2) Available species: human, mouse (CD-1), and rat (Sprague-Dawley). Compound requirements: 15 μL of a 10 mM DMSO solution. Incubation time: 5 hours at 37° C. Test Concentration: 5 μM.

[2] = Plasma protein binding (RED), mouse; assay type: in vitro ADME, mouse (CD-1); conditions: CD-1, 5 hours at 37° C., read-out: Plasma Protein Binding (Mouse, % bound) (converted)
Solubility in PBS = conditions: 23 °C, aqueous buffer, thermodynamic from solid
Experimental: (§6) Solubility of compound was tested in triplicate by diluting a 10 mM DMSO solution with PBS. Maximum concentration of compound in solution was 100 μM.
(§7) Solubility of compound was tested in triplicate by drying down a 10 mM DMSO solution and then attempting to reconstitute in 100% PBS. Maximum concentration of compound in solution was 500 μM.
(§8) Compound requirements (1% DMSO in PBS): 30 μL of a 10 mM DMSO solution. Compound requirements (PBS-only): 60 μL of a 10 mM DMSO solution. Equilibration time: 18 hours at room temperature.

[3] = Liver microsomal stability, mouse; assay type: in vitro ADME, mouse (CD-1)
Experimental: (§3) Stability of compound in liver microsomes was tested in duplicate by incubating compound at 1 μM for 60 minutes at 37° C. Compound level at 60 minutes was compared to level at 0 minutes, and percent remaining was calculated. Order by selecting Microsomal Stability in Prometheus, checking boxes for desired species.
(§4) Available species: human, mouse (CD-1), and rat (Sprague-Dawley). Compound requirements: 5 μL of a 10 mM DMSO solution. Incubation time: 60 minutes at 37° C. Test Concentration: 1 μM.
(§5) Microsomes with NADPH without compound-matrix interference. Microsomes plus compound without NADPH-non-enzymatic instability.

[4] = Liver microsomal stability, human; assay type: in vitro ADME
Experimental: as §3, §4, §5

Plasma stability, human = assay type: in vitro ADME
Experimental: as §1, §2

Plasma stability, mouse = assay type: in vitro ADME, mouse (CD-1)
Experimental: as §1, §2

GSK3α = GSK3α (Homo sapiens (Human), UniProt P49840); assay: GSK3 alpha biochemical assay (TR-FRET); conditions: GSK3α TR-FRET BIOCHEMICAL (TR-FRET) GMean IC50, 4 μM ATP (Km), 100 min at room temperature
Experimental: (§9) 1 nM enzyme, 200 nM biotinylated peptide
(§10) 4 μM ATP (GSK3 alpha) or 2 μM ATP (GSK3 beta)
(§11) The reaction volume is 10 μL, and the final percent DMSO is 1%. The total volume of DMSO is therefore 100 nL. It is critical that the percentage of DMSO be controlled and consistent across the plate. […] The High control is with all assay components but no inhibitor, the low control is with all assay components but no enzyme.
(§12) Make 2× detection reagents in Invitrogen TR-FRET detection buffer for final 20 nM Strepavidin-d2, 1 nM Tb^2+-pSer641 antibody (using 20 μl as final volume). 2× detection=40 nM Strepavidin-d2, 2 nM Tb^2+-pSer641 antibody.
(§13) XLFit is used for results which are archived into a database. The data is normalized as a percentage of uninhibited control minus max inhibited controls.

GSK3β = GSK3β (Homo sapiens (Human), UniProt P49841); assay: GSK3 beta biochemical assay (TR-FRET); conditions: GSK3β TR-FRET BIOCHEMICAL (TR-FRET) GMean IC50, 2 μM ATP (Km), 100 min at room temperature
Experimental: as §9, §10, §11, §12, §13

MDR1 = assay: Additional MDCK permeability (MDR1-MDCK) assay (Example 6); assay type: in vitro ADME; conditions: dog
Excerpt: The MDR1/MDCK assay is run at Absorption Systems. This assay is used to determine the blood-brain barrier (BBB) penetration potential of a test compound using MDR1-MDCK cell monolayers.
Assay System • Confluent monolayers of MDR1-MDCK cells, 7 to 11 days old. Assay Conditions • Receiver well with 1% BSA in modified Hanks buffer (HBSSg) • Apical and basolateral side at pH 7.4 • Dose two monolayers in each direction (N=2) • Dose apical side for (A to B) assessment • Dose basolateral side for (B to A) assessment • Sample both apical and basolateral sides at 120 minutes • Determine the concentrations of test compound using a generic LC-MS/MS method with a minimum 4 point calibration curve. Assay QC • The quality of the cell monolayer batch is verified using control compounds before monolayers are released for use • The quality of each monolayer used in the assay is verified by a TEER measurement and by calculating the Papp for a control compound.

[5] = test system: Δ7 SMA KO mouse model of SMA; conditions: transgenic Δ7 SMA KO mouse model; cited from earlier work
[6] = test system: SMA patient-derived fibroblast cells; conditions: Western blot; cited from earlier work
[7] = test system: oxidative stress-induced neurodegeneration; conditions: cited from earlier work
GSK3 = conditions: cited from earlier work
physchem = conditions: 23 °C, aqueous buffer, thermodynamic from solid
Experimental: as §6, §7, §8

[8] = human plasma, 5 μM, 5 hours at 37° C.
[9] = mouse plasma, 5 μM, 5 hours at 37° C.

Chain of GSK3β (P49841 whole entry): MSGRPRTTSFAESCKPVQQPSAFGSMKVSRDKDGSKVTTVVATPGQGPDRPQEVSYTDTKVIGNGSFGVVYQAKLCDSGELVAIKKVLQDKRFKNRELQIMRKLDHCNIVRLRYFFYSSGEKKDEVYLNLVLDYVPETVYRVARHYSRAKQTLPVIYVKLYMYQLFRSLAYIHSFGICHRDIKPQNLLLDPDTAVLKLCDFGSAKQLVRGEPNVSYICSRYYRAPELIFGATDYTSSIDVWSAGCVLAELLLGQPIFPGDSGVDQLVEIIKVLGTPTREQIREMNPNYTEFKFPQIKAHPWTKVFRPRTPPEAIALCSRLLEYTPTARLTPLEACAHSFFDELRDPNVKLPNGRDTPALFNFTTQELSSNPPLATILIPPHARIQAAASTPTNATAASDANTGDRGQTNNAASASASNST
Chain of GSK3α (P49840 whole entry): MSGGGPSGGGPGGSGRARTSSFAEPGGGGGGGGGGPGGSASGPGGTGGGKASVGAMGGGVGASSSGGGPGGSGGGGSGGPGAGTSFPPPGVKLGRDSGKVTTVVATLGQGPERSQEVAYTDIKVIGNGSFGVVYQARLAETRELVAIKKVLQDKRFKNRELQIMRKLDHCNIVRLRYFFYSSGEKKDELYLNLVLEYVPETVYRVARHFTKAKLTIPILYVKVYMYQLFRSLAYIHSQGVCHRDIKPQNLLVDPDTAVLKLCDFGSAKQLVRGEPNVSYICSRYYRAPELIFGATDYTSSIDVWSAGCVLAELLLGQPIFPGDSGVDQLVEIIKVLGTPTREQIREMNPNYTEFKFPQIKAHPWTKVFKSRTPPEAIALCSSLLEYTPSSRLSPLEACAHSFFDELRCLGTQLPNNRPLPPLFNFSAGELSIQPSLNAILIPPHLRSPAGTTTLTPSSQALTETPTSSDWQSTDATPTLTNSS

## CC[C@@]1(c2cccc(Cl)c2)C2=C(CC(C)(C)CC2=O)Nc2ncsc21
[1]
  fraction unbound at 5 h, 5 μM: 0.018
[2]
  fraction unbound at 5 h, 5 μM: 0.023
Solubility in PBS
  solubility thermodynamic at 18 h: 37 µM (≈ 13.8 µg/mL)
[3]; 1 μM, 60 minutes at 37° C.
  Mouse Liver Microsomal Stability, % remaining: 11.1%
[4]; 1 μM, 60 minutes at 37° C.
  Human Liver Microsomal Stability, % remaining: 0.0%
Plasma stability, human; [8]
  Plasma Stability (Human, % remaining): 98.7%
Plasma stability, mouse; [9]
  Plasma Stability (Mouse, % remaining): 98.1%

## CC[C@@]1(c2cccc(OC)c2)C2=C(CC(C)(C)CC2=O)Nc2ncsc21
[1]
  fraction unbound at 5 h, 5 μM: 0.025
[2]
  fraction unbound at 5 h, 5 μM: 0.077
Solubility in PBS
  solubility thermodynamic at 18 h: 153 µM (≈ 56.4 µg/mL)
[3]; 1 μM, 60 minutes at 37° C.
  Mouse Liver Microsomal Stability, % remaining: 10.8%
[4]; 1 μM, 60 minutes at 37° C.
  Human Liver Microsomal Stability, % remaining: 1.6%
Plasma stability, human; [8]
  Plasma Stability (Human, % remaining): 98.3%
Plasma stability, mouse; [9]
  Plasma Stability (Mouse, % remaining): 97.0%

## CCC1(c2ccccc2)C2=C(CC(C)(C)CC2=O)Nc2ncsc21 (single isomer, unassigned) [Compound 1-E2, 9-Ethyl-6,6-dimethyl-9-phenyl-5,6,7,9-tetrahydrothiazolo[4,5-b]quinolin-8(4H)-one]
GSK3α
  IC50: 0.037 µM
GSK3β
  IC50: 0.19 µM
MDR1
  Papp A→B at 120 min, 5 μM: 7.67 ×10⁻⁶ cm/s
  Papp B→A at 120 min, 5 μM: 24.4 ×10⁻⁶ cm/s
MDR1; read-out: MDCK PERMEABILITY (MDR1-MDCK) Mean P. Ratio(B-A/A-B)
  efflux ratio at 120 min, 5 μM: 3.2

## Cn1cc(C2=C(c3coc4ccccc34)C(=O)NC2=O)c2cc(Br)ccc21 [BIP-135]
[5]
  median survival of the mice: prolong the median survival of the mice
[6]
  SMN protein level: elevate the SMN protein level
[7]
  neuroprotection: neuroprotective

## [Li+] [Li^+, Lithium]
GSK3
  IC50: 2000 µM

## CC1(C)CC(=O)C2=C(C1)Nc1ncsc1[C@]2(C)c1ccccc1 [drawing 172]
[1]
  fraction unbound at 5 h, 5 μM: 0.005
[2]
  fraction unbound at 5 h, 5 μM: 0.004
Solubility in PBS
  solubility thermodynamic at 18 h: 34 µM (≈ 11 µg/mL)
[3]; 1 μM, 60 minutes at 37° C.
  Mouse Liver Microsomal Stability, % remaining: 0.7%
[4]; 1 μM, 60 minutes at 37° C.
  Human Liver Microsomal Stability, % remaining: 17.7%
Plasma stability, human; [8]
  Plasma Stability (Human, % remaining): 100%
Plasma stability, mouse; [9]
  Plasma Stability (Mouse, % remaining): 100%

## CC[C@@]1(c2ccccc2)C2=C(CC(C)(C)CC2=O)Nc2ncsc21 [drawing 173]
[1]
  fraction unbound at 5 h, 5 μM: 0.049
[2]
  fraction unbound at 5 h, 5 μM: 0.074
Solubility in PBS
  solubility thermodynamic at 18 h: 17 µM (≈ 5.75 µg/mL)
[3]; 1 μM, 60 minutes at 37° C.
  Mouse Liver Microsomal Stability, % remaining: 5.6%
[4]; 1 μM, 60 minutes at 37° C.
  Human Liver Microsomal Stability, % remaining: 6.6%
Plasma stability, human; [8]
  Plasma Stability (Human, % remaining): 100%
Plasma stability, mouse; [9]
  Plasma Stability (Mouse, % remaining): 100%

## CC[C@@]1(c2cccc(F)c2)C2=C(CC(C)(C)CC2=O)Nc2ncsc21 [drawing 174]
[1]
  fraction unbound at 5 h, 5 μM: 0.029
[2]
  fraction unbound at 5 h, 5 μM: 0.043
Solubility in PBS
  solubility thermodynamic at 18 h: 100 µM (≈ 35.6 µg/mL)
[3]; 1 μM, 60 minutes at 37° C.
  Mouse Liver Microsomal Stability, % remaining: 3.9%
[4]; 1 μM, 60 minutes at 37° C.
  Human Liver Microsomal Stability, % remaining: 2.4%
Plasma stability, human; [8]
  Plasma Stability (Human, % remaining): 99.2%
Plasma stability, mouse; [9]
  Plasma Stability (Mouse, % remaining): 96.0%

## CC[C@@]1(c2cccc(C)c2)C2=C(CC(C)(C)CC2=O)Nc2ncsc21 [drawing 176]
[1]
  fraction unbound at 5 h, 5 μM: 0.019
[2]
  fraction unbound at 5 h, 5 μM: 0.045
Solubility in PBS
  solubility thermodynamic at 18 h: 75 µM (≈ 26.4 µg/mL)
[3]; 1 μM, 60 minutes at 37° C.
  Mouse Liver Microsomal Stability, % remaining: 8.2%
[4]; 1 μM, 60 minutes at 37° C.
  Human Liver Microsomal Stability, % remaining: 0.7%
Plasma stability, human; [8]
  Plasma Stability (Human, % remaining): 98.9%
Plasma stability, mouse; [9]
  Plasma Stability (Mouse, % remaining): 97.8%

## CC[C@@]1(c2ccccc2)C2=C(CC(C)(C)CC2=O)Nc2n[nH]cc21 [drawing 179]
physchem
  solubility thermodynamic at 18 h: 480 µM (≈ 154 µg/mL)
[2]
  fraction unbound at 5 h, 5 μM: 0.212
[3]; 1 μM, 60 minutes at 37° C.
  Mouse Liver Microsomal Stability, % remaining: 93%
[4]; 1 μM, 60 minutes at 37° C.
  Human Liver Microsomal Stability, % remaining: 95%
Plasma stability, mouse; [9]
  Plasma Stability (Mouse, % remaining): 95.3%

## Cc1c[nH]c(-c2cnc(NCCNc3ccc(C#N)cn3)nc2-c2ccc(Cl)cc2Cl)n1 [drawing 180]
[1]
  fraction unbound at 5 h, 5 μM: 0.039
physchem
  solubility thermodynamic at 18 h: 116 µM (≈ 54 µg/mL)
[2]
  fraction unbound at 5 h, 5 μM: 0.043
[3]
  Mouse Liver Microsomal Stability, % remaining: 4.0%
[4]
  Human Liver Microsomal Stability, % remaining: 3.0%
Plasma stability, human
  Plasma Stability (Human, % remaining): 100%
Plasma stability, mouse
  Plasma Stability (Mouse, % remaining): 97.0%
